Source: patent publication US20260097133A1, “EPIGENETIC EDITING TOOL FOR TARGETING HEPATITIS B VIRUS GENE” (priority 2023, published 2026)

Experiments:
[1] = tested on: type D HBV core antigen (HBcAg) reporter cell line; experiment: sgRNA lentiviral library screening, HBcAg reporter cell line (NGS reads in GFP-negative cells); type: cell-based; settings: sgRNA in GFP-negative cell population, day 14 after transfection of EPIREG
Excerpt: (§1) In this example, the type D HBV X protein (HBx), core antigen (HBcAg), and surface antigen (HBsAg) reporter cell lines were used for library screening. First, a sgRNA cell library of type D HBV gene was constructed using a reporter cell line according to the method described in example 1. The sgRNA library was packaged into lentivirus to obtain a sgRNA lentiviral library (carrying red fluorescence), the reporter cell line was infected with the lentiviral library, and the red fluorescence was sorted to obtain the sgRNA cell library. Each cell in this sorted cell library integrated a single sgRNA in the library while the cell itself carried a reporter sequence (carrying green fluorescence). The EPIREG tool described in example 2 (the amino acid sequence of the tool was SEQ ID NO: 1194) (carrying blue fluorescence) was transfected and delivered into a cell library carrying both sgRNA and reporter sequences. Red/green/blue fluorescent triple-positive cells were sorted using a flow cytometer and cultured long-term. The EPIREG transfected into the cells could work together with the sgRNA to silence GFP in the reporter. On the day 14 after transfection, the GFP-negative cell population in the cell library was sorted, the genomic DNA of the negative cell population was extracted for NGS sequencing. The sgRNAs with higher sequencing reads in the negative cell population were compared using the untreated cell library as a control reference, so as to obtain the candidate sgRNAs that could play an editing role corresponding to each reporter, respectively (the schematic diagram of this screening scheme is shown in FIG. 6, and the analysis method is referenced to the literature DOI: 10.1186/s13059-014-0554-4). The functionally validated sgRNAs for each reporter cell line are summarized in the following table (arranged by the starting position of the target sequence of each sgRNA).

[2] = tested on: type D HBV X protein (HBx) reporter cell line; experiment: sgRNA lentiviral library screening, HBx reporter cell line (NGS reads in GFP-negative cells); type: cell-based; settings: sgRNA in GFP-negative cell population, day 14 after transfection of EPIREG
Excerpt: as §1

Substance	Log2 FC [1]	Log2 FC [2]
249 (guide ATGACCAAGCCCCAGCCAGT; listed as DNA, chemistry not fully specified) [compound 249]	2.8648	5.9752
305 (guide CACAGAAAGGCCTTGTAAGT; listed as DNA, chemistry not fully specified) [compound 305]	2.1583	4.9316
327 (guide CACTGGCTGGGGCTTGGTCA; listed as DNA, chemistry not fully specified) [compound 327]	1.8664	5.8386
335 (guide CAGATGAGAAGGCACAGACG; listed as DNA, chemistry not fully specified) [compound 335]	–	4.44
357 (guide CATGACCAAGCCCCAGCCAG; listed as DNA, chemistry not fully specified) [compound 357]	3.1523	6.2753
450 (guide CCTGCGGACGACCCTTCTCG; listed as DNA, chemistry not fully specified) [compound 450]	–	4.242
451 (guide CCTGCTGCGAGCAAAACAAG; listed as DNA, chemistry not fully specified) [compound 451]	2.9406	5.3958
484 (guide CGCCGACGGGACGTAAACAA; listed as DNA, chemistry not fully specified) [compound 484]	–	3.3079
496 (guide CGGCTAGGAGTTCCGCAGTA; listed as DNA, chemistry not fully specified) [compound 496]	2.9031	7.3529
498 (guide CGGGGAGTCCGCGTAAAGAG; listed as DNA, chemistry not fully specified) [compound 498]	–	2.939
539 (guide CTGACGCAACCCCCACTGGC; listed as DNA, chemistry not fully specified) [compound 539]	–	3.1536
553 (guide CTGGCCGTTGCCGGGCAACG; listed as DNA, chemistry not fully specified) [compound 553]	2.4462	3.9905
591 (guide GAAGCGAAGTGCACACGGTC; listed as DNA, chemistry not fully specified) [compound 591]	4.4134	5.7107
612 (guide GACGCAACCCCCACTGGCTG; listed as DNA, chemistry not fully specified) [compound 612]	2.8035	6.7125
650 (guide GATTGAATACATGCATACAA; listed as DNA, chemistry not fully specified) [compound 650]	–	3.726
657 (guide GCAAACACTTGGCACAGACC; listed as DNA, chemistry not fully specified) [compound 657]	1.9192	3.2226
735 (guide GGCACAGACCTGGCCGTTGC; listed as DNA, chemistry not fully specified) [compound 735]	–	4.08
762 (guide GGGCAACGGGGTAAAGGTTC; listed as DNA, chemistry not fully specified) [compound 762]	–	4.8522
788 (guide GGGTTGCGTCAGCAAACACT; listed as DNA, chemistry not fully specified) [compound 788]	–	4.4031
1033 (guide TGCGAGCAAAACAAGCGGCT; listed as DNA, chemistry not fully specified) [compound 1033]	–	3.1795
